Data taken from the NIST ThermoML archive (doi:10.1021/je8001128).
± gives the expanded uncertainty stated by the source. Each block holds one compound with its values, some of them ahead of it.

Experiments:
[1] = 298.15 K; 101 kPa; Liquid
[2] = wn = mass fraction of the nth substance listed; conditions: 298.15 K, 101 kPa, Liquid

viscosity [1]: 0.4 ± 0.1 mPa·s
Compound: COC(C)=O [methyl ethanoate]

viscosity [1]: 0.4 ± 0.1 mPa·s
Compound: CCOC=O [ethyl methanoate]

Compound: CCCCn1cc[n+](C)c1.F[B-](F)(F)F [1-butyl-3-methylimidazolium tetrafluoroborate] + CCOC=O
mass density ([2]; w1 = 1): 1211.05 ± 8.6 kg/m3
viscosity ([2]; w1 = 1): 110.3 ± 6.6 mPa·s

mass density ([2]; w2 = 0): 964.78 ± 0.45 kg/m3
viscosity ([2]; w2 = 0): 0.3 ± 0.1 mPa·s
mass density ([2]; w2 = 0.1653): 1011.72 ± 0.78 kg/m3
viscosity ([2]; w2 = 0.1653): 0.5 ± 0.1 mPa·s
mass density ([2]; w2 = 0.2974): 1045.55 ± 1.4 kg/m3
viscosity ([2]; w2 = 0.2974): 0.9 ± 0.1 mPa·s
mass density ([2]; w2 = 0.4895): 1091.4 ± 2.5 kg/m3
viscosity ([2]; w2 = 0.4895): 1.9 ± 0.1 mPa·s
mass density ([2]; w2 = 0.6165): 1121.47 ± 3.6 kg/m3
viscosity ([2]; w2 = 0.6165): 3.5 ± 0.1 mPa·s
mass density ([2]; w2 = 0.6592): 1131.2 ± 4 kg/m3
viscosity ([2]; w2 = 0.6592): 4.4 ± 0.1 mPa·s
mass density ([2]; w2 = 0.7145): 1143.64 ± 4.6 kg/m3
viscosity ([2]; w2 = 0.7145): 6.3 ± 0.2 mPa·s
mass density ([2]; w2 = 0.7547): 1152.73 ± 5.1 kg/m3
viscosity ([2]; w2 = 0.7547): 8.2 ± 0.2 mPa·s
mass density ([2]; w2 = 0.7899): 1160.43 ± 5.5 kg/m3
viscosity ([2]; w2 = 0.7899): 10.6 ± 0.3 mPa·s
mass density ([2]; w2 = 0.8204): 1167.19 ± 5.9 kg/m3
viscosity ([2]; w2 = 0.8204): 13.7 ± 0.4 mPa·s
mass density ([2]; w2 = 0.8492): 1173.37 ± 6.2 kg/m3
viscosity ([2]; w2 = 0.8492): 17.12 ± 0.48 mPa·s
mass density ([2]; w2 = 0.8977): 1182.34 ± 6.9 kg/m3
viscosity ([2]; w2 = 0.8977): 28.3 ± 0.8 mPa·s
mass density ([2]; w2 = 0.9376): 1192.78 ± 7.5 kg/m3
viscosity ([2]; w2 = 0.9376): 44.2 ± 1.3 mPa·s
mass density ([2]; w2 = 0.9711): 1202.31 ± 8 kg/m3
viscosity ([2]; w2 = 0.9711): 68.4 ± 2.2 mPa·s
Compound: COC=O [methyl methanoate] + CCCCn1cc[n+](C)c1.F[B-](F)(F)F

Compound: CC(C)=O [acetone] + CCCCn1cc[n+](C)c1.F[B-](F)(F)F
mass density ([2]; w2 = 0): 785.36 ± 0.81 kg/m3
viscosity ([2]; w2 = 0): 0.3 ± 0.1 mPa·s

Compound: CC(C)=O [acetone]
mass density [1]: 785.36 ± 0.81 kg/m3
viscosity [1]: 0.3 ± 0.1 mPa·s

mass density ([2]; w2 = 0): 928.48 ± 0.52 kg/m3
viscosity ([2]; w2 = 0): 0.4 ± 0.1 mPa·s
mass density ([2]; w2 = 0.1384): 961.2 ± 0.72 kg/m3
viscosity ([2]; w2 = 0.1384): 0.6 ± 0.1 mPa·s
mass density ([2]; w2 = 0.254): 989.2 ± 1 kg/m3
viscosity ([2]; w2 = 0.254): 1 ± 0.1 mPa·s
mass density ([2]; w2 = 0.4306): 1040.81 ± 1.9 kg/m3
viscosity ([2]; w2 = 0.4306): 2 ± 0.1 mPa·s
mass density ([2]; w2 = 0.5721): 1082.16 ± 3 kg/m3
viscosity ([2]; w2 = 0.5721): 3.8 ± 0.1 mPa·s
mass density ([2]; w2 = 0.6278): 1098.26 ± 3.5 kg/m3
viscosity ([2]; w2 = 0.6278): 5.1 ± 0.2 mPa·s
mass density ([2]; w2 = 0.6729): 1111.27 ± 4 kg/m3
viscosity ([2]; w2 = 0.6729): 6.5 ± 0.2 mPa·s
mass density ([2]; w2 = 0.7159): 1123.69 ± 4.4 kg/m3
viscosity ([2]; w2 = 0.7159): 8.5 ± 0.2 mPa·s
mass density ([2]; w2 = 0.751): 1133.73 ± 4.8 kg/m3
viscosity ([2]; w2 = 0.751): 10.6 ± 0.3 mPa·s
mass density ([2]; w2 = 0.7847): 1143.34 ± 5.2 kg/m3
viscosity ([2]; w2 = 0.7847): 13.3 ± 0.4 mPa·s
mass density ([2]; w2 = 0.8199): 1153.32 ± 5.7 kg/m3
viscosity ([2]; w2 = 0.8199): 16.9 ± 0.5 mPa·s
mass density ([2]; w2 = 0.8756): 1169.16 ± 6.5 kg/m3
viscosity ([2]; w2 = 0.8756): 26.6 ± 0.7 mPa·s
mass density ([2]; w2 = 0.9231): 1183.78 ± 7.2 kg/m3
viscosity ([2]; w2 = 0.9231): 43.7 ± 1.3 mPa·s
mass density ([2]; w2 = 0.9647): 1198.3 ± 7.9 kg/m3
viscosity ([2]; w2 = 0.9647): 69 ± 2.3 mPa·s
Compound: CCOC=O [ethyl methanoate] + CCCCn1cc[n+](C)c1.F[B-](F)(F)F

mass density ([2]; w2 = 0): 915.97 ± 0.55 kg/m3
viscosity ([2]; w2 = 0): 0.4 ± 0.1 mPa·s
mass density ([2]; w2 = 0.1386): 964.5 ± 0.72 kg/m3
viscosity ([2]; w2 = 0.1386): 0.6 ± 0.1 mPa·s
mass density ([2]; w2 = 0.254): 996.04 ± 1 kg/m3
viscosity ([2]; w2 = 0.254): 0.9 ± 0.1 mPa·s
mass density ([2]; w2 = 0.4326): 1045.98 ± 2 kg/m3
viscosity ([2]; w2 = 0.4326): 2 ± 0.1 mPa·s
mass density ([2]; w2 = 0.5703): 1084.58 ± 3 kg/m3
viscosity ([2]; w2 = 0.5703): 3.6 ± 0.1 mPa·s
mass density ([2]; w2 = 0.622): 1098.9 ± 3.5 kg/m3
viscosity ([2]; w2 = 0.622): 4.7 ± 0.1 mPa·s
mass density ([2]; w2 = 0.6699): 1112.24 ± 4 kg/m3
viscosity ([2]; w2 = 0.6699): 6.2 ± 0.2 mPa·s
mass density ([2]; w2 = 0.7149): 1124.8 ± 4.4 kg/m3
viscosity ([2]; w2 = 0.7149): 8.2 ± 0.2 mPa·s
mass density ([2]; w2 = 0.7526): 1136.01 ± 4.9 kg/m3
viscosity ([2]; w2 = 0.7526): 10.2 ± 0.3 mPa·s
mass density ([2]; w2 = 0.7875): 1144.94 ± 5.3 kg/m3
viscosity ([2]; w2 = 0.7875): 13.1 ± 0.4 mPa·s
mass density ([2]; w2 = 0.8204): 1153.95 ± 5.7 kg/m3
viscosity ([2]; w2 = 0.8204): 16.3 ± 0.5 mPa·s
mass density ([2]; w2 = 0.8766): 1169.55 ± 6.5 kg/m3
viscosity ([2]; w2 = 0.8766): 25.8 ± 0.7 mPa·s
mass density ([2]; w2 = 0.9243): 1182.88 ± 7.2 kg/m3
viscosity ([2]; w2 = 0.9243): 40.8 ± 1.2 mPa·s
mass density ([2]; w2 = 0.9648): 1197.7 ± 7.9 kg/m3
viscosity ([2]; w2 = 0.9648): 63.7 ± 1.9 mPa·s
Compound: COC(C)=O [methyl ethanoate] + CCCCn1cc[n+](C)c1.F[B-](F)(F)F

Compound: CCCCn1cc[n+](C)c1.F[B-](F)(F)F [1-butyl-3-methylimidazolium tetrafluoroborate] + COC(C)=O
mass density ([2]; w1 = 1): 1211.05 ± 8.6 kg/m3
viscosity ([2]; w1 = 1): 110.3 ± 6.6 mPa·s

Compound: CCCCn1cc[n+](C)c1.F[B-](F)(F)F [1-butyl-3-methylimidazolium tetrafluoroborate] + COC=O
mass density ([2]; w1 = 1): 1211.05 ± 8.6 kg/m3
viscosity ([2]; w1 = 1): 110.3 ± 6.6 mPa·s

mass density [1]: 964.78 ± 0.45 kg/m3
viscosity [1]: 0.3 ± 0.1 mPa·s
Compound: COC=O [methyl methanoate]

Compound: CCCCn1cc[n+](C)c1.F[B-](F)(F)F [1-butyl-3-methylimidazolium tetrafluoroborate]
mass density [1]: 1211.05 ± 8.6 kg/m3
viscosity [1]: 110.3 ± 6.6 mPa·s

Compound: CCCCn1cc[n+](C)c1.F[B-](F)(F)F [1-butyl-3-methylimidazolium tetrafluoroborate] + CC(C)=O
mass density ([2]; w1 = 0.1724): 846.15 ± 0.96 kg/m3
viscosity ([2]; w1 = 0.1724): 0.5 ± 0.1 mPa·s
mass density ([2]; w1 = 0.3033): 894.39 ± 1.2 kg/m3
viscosity ([2]; w1 = 0.3033): 0.7 ± 0.1 mPa·s
mass density ([2]; w1 = 0.495): 970.29 ± 2 kg/m3
viscosity ([2]; w1 = 0.495): 1.5 ± 0.1 mPa·s
mass density ([2]; w1 = 0.6276): 1026.98 ± 3 kg/m3
viscosity ([2]; w1 = 0.6276): 3 ± 0.1 mPa·s
mass density ([2]; w1 = 0.677): 1048.91 ± 3.5 kg/m3
viscosity ([2]; w1 = 0.677): 4 ± 0.1 mPa·s
mass density ([2]; w1 = 0.7197): 1068.29 ± 4 kg/m3
viscosity ([2]; w1 = 0.7197): 5.2 ± 0.2 mPa·s
mass density ([2]; w1 = 0.7603): 1086.16 ± 4.4 kg/m3
viscosity ([2]; w1 = 0.7603): 6.9 ± 0.2 mPa·s
mass density ([2]; w1 = 0.7933): 1102.46 ± 4.9 kg/m3
viscosity ([2]; w1 = 0.7933): 9 ± 0.3 mPa·s
mass density ([2]; w1 = 0.8267): 1118.43 ± 5.4 kg/m3
viscosity ([2]; w1 = 0.8267): 12 ± 0.3 mPa·s
mass density ([2]; w1 = 0.8536): 1131.38 ± 5.8 kg/m3
viscosity ([2]; w1 = 0.8536): 15.1 ± 0.4 mPa·s
mass density ([2]; w1 = 0.9024): 1155.29 ± 6.6 kg/m3
viscosity ([2]; w1 = 0.9024): 25.5 ± 0.7 mPa·s
mass density ([2]; w1 = 0.939): 1174.32 ± 7.2 kg/m3
viscosity ([2]; w1 = 0.939): 40.1 ± 1.2 mPa·s
mass density ([2]; w1 = 0.9707): 1193.01 ± 7.9 kg/m3
viscosity ([2]; w1 = 0.9707): 64.7 ± 2 mPa·s
mass density ([2]; w1 = 1): 1211.05 ± 8.6 kg/m3
viscosity ([2]; w1 = 1): 110.3 ± 6.6 mPa·s
